Measurements: PubChem BioAssay AID248 (DTP/NCI, 2004)
Toxic doses and inconclusive results are not listed. No stated cut-off is given here; in the data, active means T/C of 150% or more; inactive means T/C below 125%.

Tested on: L1210 leukemia ip in BDF1 mice, survival T/C
Experiment: NCI In Vivo Anticancer Drug Screen. Data for tumor model L1210 Leukemia (intraperitoneal) in B6D2F1 (BDF1) mice
Details: endpoint: mean survival time, higher = longer survival
Outline: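 Antitumor effect is assessed in tumor-bearing animals. Survival in the compound arm is compared with a vehicle-dosed control arm and expressed as their quotient.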

[1] = dose: 100.0 mg/kg/injection, schedule: Q04DX002 (ip), vehicle: Klucel (hydroxypropylcellulose) (HPC)
[2] = dose: 200.0 mg/kg/injection, schedule: Q04DX002 (ip), vehicle: Klucel (hydroxypropylcellulose) (HPC)
[3] = dose: 400.0 mg/kg/injection, schedule: Q04DX002 (ip), vehicle: Klucel (hydroxypropylcellulose) (HPC)
[4] = dose: 400.0 mg/kg/injection, schedule: Q01DX009 (ip), vehicle: saline
[5] = dose: 100.0 mg/kg/injection, schedule: Q01DX009 (ip), vehicle: saline with Tween-80
[6] = dose: 200.0 mg/kg/injection, schedule: Q01DX009 (ip), vehicle: saline with Tween-80
[7] = dose: 100.0 mg/kg/injection, schedule: Q04DX003 (ip), vehicle: Klucel (hydroxypropylcellulose) (HPC)
[8] = dose: 200.0 mg/kg/injection, schedule: Q04DX003 (ip), vehicle: Klucel (hydroxypropylcellulose) (HPC)
[9] = dose: 400.0 mg/kg/injection, schedule: Q04DX003 (ip), vehicle: Klucel (hydroxypropylcellulose) (HPC)
[10] = dose: 100.0 mg/kg/injection, schedule: Q01DX001 (ip), vehicle: carboxymethylcellulose (CMC)
[11] = dose: 200.0 mg/kg/injection, schedule: Q01DX001 (ip), vehicle: carboxymethylcellulose (CMC)
[12] = dose: 400.0 mg/kg/injection, schedule: Q01DX001 (ip), vehicle: carboxymethylcellulose (CMC)
[13] = dose: 6.25 mg/kg/injection, schedule: Q01DX009 (ip), vehicle: saline
[14] = dose: 12.5 mg/kg/injection, schedule: Q04DX003 (ip), vehicle: saline
[15] = dose: 25.0 mg/kg/injection, schedule: Q04DX003 (ip), vehicle: saline
[16] = dose: 100.0 mg/kg/injection, schedule: Q01DX009 (ip), vehicle: Klucel (hydroxypropylcellulose) (HPC)
[17] = dose: 200.0 mg/kg/injection, schedule: Q01DX009 (ip), vehicle: Klucel (hydroxypropylcellulose) (HPC)
[18] = dose: 400.0 mg/kg/injection, schedule: Q01DX009 (ip), vehicle: Klucel (hydroxypropylcellulose) (HPC)

Measured: T/C

CCOC1OCN(C(C)C)CC1(C)C (stereo not drawn)
inactive: dose: 75.0 mg/kg/injection, schedule: Q01DX009 (ip), vehicle: saline 110 % of control | dose: 150.0 mg/kg/injection, schedule: Q01DX009 (ip), vehicle: saline 119 % of control

O=C(O)COc1ccc(C(=O)O)cc1
inactive: [1] 111 % of control | [2] 97 % of control | [3] 101 % of control

CCOC(=O)c1ccc[n+](CCCl)c1
inactive: dose: 10.0 mg/kg/injection, schedule: Q01DX Z (ip), vehicle: saline 98 % of control | dose: 30.0 mg/kg/injection, schedule: Q01DX Z (ip), vehicle: saline 97 % of control | dose: 100.0 mg/kg/injection, schedule: Q01DX Z (ip), vehicle: saline 90 % of control

CNC(=O)NN
inactive: dose: 25.0 mg/kg/injection, schedule: Q04DX002 (ip), vehicle: saline with Tween-80 97 % of control | dose: 50.0 mg/kg/injection, schedule: Q04DX002 (ip), vehicle: saline with Tween-80 93 % of control | dose: 100.0 mg/kg/injection, schedule: Q04DX002 (ip), vehicle: saline with Tween-80 90 % of control

COc1cc2c(cc1OC)C1CCc3cc4c(cc3C1N=C2)OCO4 (stereo not drawn)
inactive: dose: 80.0 mg/kg/injection, schedule: Q01DX009 (ip), vehicle: saline 96 % of control | dose: 120.0 mg/kg/injection, schedule: Q01DX009 (ip), vehicle: saline 98 % of control | dose: 240.0 mg/kg/injection, schedule: Q01DX009 (ip), vehicle: saline 98 % of control | [4] 91 % of control

Cc1ccc(-n2c(O)c(C=N)c(=O)n(-c3ccc(C)cc3)c2=O)cc1
inactive: [5] 98 % of control | [6] 98 % of control | dose: 400.0 mg/kg/injection, schedule: Q01DX009 (ip), vehicle: saline with Tween-80 95 % of control

CC(=O)Cc1cc(C)nc(/N=C(\N)N2CCOCC2)n1
inactive: [1] 100 % of control | [2] 92 % of control | [3] 88 % of control

CC1=CC(=O)N(CO)C1=O
inactive: dose: 25.0 mg/kg/injection, schedule: Q04DX003 (ip), vehicle: water 94 % of control | dose: 50.0 mg/kg/injection, schedule: Q04DX003 (ip), vehicle: water 98 % of control

CC(=O)OC1CCC2(C)C(=CCC3C2CCC2(C)C3CC(Br)C2C(C)=O)C1 (stereo not drawn)
inactive: [7] 107 % of control | [8] 88 % of control | [9] 103 % of control

CCOC(=O)CC(O)(c1ccc(OC)cc1)c1ccc(OC)cc1
inactive: [10] 92 % of control | [11] 97 % of control | [12] 95 % of control

BrCc1cccc2cccnc12
inactive: dose: 1.56 mg/kg/injection, schedule: Q01DX009 (ip), vehicle: saline with Tween-80 93 % of control | dose: 3.13 mg/kg/injection, schedule: Q01DX009 (ip), vehicle: saline with Tween-80 96 % of control | dose: 6.25 mg/kg/injection, schedule: Q01DX009 (ip), vehicle: saline with Tween-80 91 % of control | dose: 12.5 mg/kg/injection, schedule: Q01DX009 (ip), vehicle: saline with Tween-80 91 % of control

CC(=O)c1cccc2c(C(C)=O)cccc12
inactive: dose: 50.0 mg/kg/injection, schedule: Q01DX001 (ip), vehicle: carboxymethylcellulose (CMC) 105 % of control | [10] 103 % of control | [11] 111 % of control | [12] 103 % of control

FC(F)(F)c1ccc2c(c1)N(CCCN1CCN(CC[n+]3ccccc3)CC1)c1ccccc1S2
inactive: dose: 1.56 mg/kg/injection, schedule: Q01DX009 (ip), vehicle: saline 95 % of control | dose: 3.12 mg/kg/injection, schedule: Q01DX009 (ip), vehicle: saline 95 % of control | [13] 110 % of control | dose: 9.2 mg/kg/injection, schedule: Q01DX009 (ip), vehicle: saline 120 % of control | [14] 101 % of control | dose: 14.0 mg/kg/injection, schedule: Q01DX009 (ip), vehicle: saline 109 % of control | [15] 97 % of control

CCc1ccccc1NC(=O)Nc1ccc(C(=O)O)cc1
inactive: [16] 98 % of control | [17] 94 % of control

O=C(Nc1ccc(Cl)c([N+](=O)[O-])c1)N(CC(O)c1ccccc1)C1CCCCC1 (stereo not drawn)
inactive: [16] 93 % of control | [17] 93 % of control | [18] 87 % of control

CC(=O)Nc1cccc2nsnc12
inactive: [7] 100 % of control | [8] 93 % of control

O=C1NC(=S)S/C1=C\c1ccc(F)cc1
inactive: dose: 12.5 mg/kg/injection, schedule: Q04DX003 (ip), vehicle: saline with Tween-80 117 % of control | dose: 25.0 mg/kg/injection, schedule: Q04DX003 (ip), vehicle: saline with Tween-80 98 % of control | dose: 50.0 mg/kg/injection, schedule: Q04DX003 (ip), vehicle: saline with Tween-80 103 % of control

N=c1nc(N)c(N)c(N)n1O
inactive: [10] 94 % of control | [11] 97 % of control | [12] 97 % of control

O=C1N(c2cccnc2)C(c2ccccc2)C1(c1ccccc1)c1ccccc1 (stereo not drawn)
inactive: dose: 100.0 mg/kg/injection, schedule: Q04DX003 (ip), vehicle: gum acacia 91 % of control | dose: 200.0 mg/kg/injection, schedule: Q04DX003 (ip), vehicle: gum acacia 87 % of control | dose: 400.0 mg/kg/injection, schedule: Q04DX003 (ip), vehicle: gum acacia 91 % of control

BrC1CCCCCC(Br)C12OCCO2 (stereo not drawn)
inactive: [16] 95 % of control | [7] 102 % of control | [17] 98 % of control | [8] 104 % of control | [18] 101 % of control | [9] 100 % of control

C[N+]1(C)CCCC1
inactive: [13] 103 % of control | dose: 12.5 mg/kg/injection, schedule: Q01DX009 (ip), vehicle: saline 102 % of control | [14] 86 % of control | dose: 25.0 mg/kg/injection, schedule: Q01DX009 (ip), vehicle: saline 109 % of control | [15] 91 % of control | dose: 50.0 mg/kg/injection, schedule: Q04DX003 (ip), vehicle: saline 95 % of control

O=S(=O)(/C=C/c1ccc(-c2ccccc2)cc1)c1ccccc1
inactive: dose: 100.0 mg/kg/injection, schedule: Q01DX001 (ip), vehicle: acetone 101 % of control | dose: 100.0 mg/kg/injection, schedule: Q01DX009 (ip), vehicle: saline 94 % of control | dose: 100.0 mg/kg/injection, schedule: Q04DX003 (ip), vehicle: acetone 108 % of control | dose: 200.0 mg/kg/injection, schedule: Q01DX001 (ip), vehicle: acetone 89 % of control | dose: 200.0 mg/kg/injection, schedule: Q01DX009 (ip), vehicle: saline 96 % of control | dose: 200.0 mg/kg/injection, schedule: Q04DX003 (ip), vehicle: acetone 96 % of control | dose: 400.0 mg/kg/injection, schedule: Q01DX001 (ip), vehicle: acetone 98 % of control | [4] 96 % of control | dose: 400.0 mg/kg/injection, schedule: Q04DX003 (ip), vehicle: acetone 96 % of control

O=C(Nc1ccc(F)c(Cl)c1)Nc1ccc(Cl)c(C(F)(F)F)c1
inactive: [5] 88 % of control | [6] 98 % of control
